Four molecules from ChEMBL document CHEMBL1136461 (Bioorg Med Chem Lett, 2003) can be followed below.

≈ marks a conversion by molar mass, not a printed value.

One experiment deals with Haemophilus influenzae. The experiment can be described thus: Antibacterial activity against […] influenzae. The class given is functional.
Experiment [1] concerns Staphylococcus aureus. The experiment can be described thus: Antibacterial activity against methicillin susceptible Staphylococcus aureus (MSSA). The class given is functional.
Experiment [2] has as its system Mus musculus. The experiment in a line: Efficacy of compound to protect the methicillin resistant Staphylococcus aureus infected murine iv administration. The experiment is classed as functional.
In experiment [3] the test system is Streptococcus pneumoniae. The experiment in a line: Antibacterial activity against Staphylococcus pneumoniae (PEN-R).
In experiment [4] the test system is Staphylococcus aureus. The experiment can be described thus: Antibacterial activity against methicillin resistant Staphylococcus aureus (MRSA). The class given is functional.
For experiment [5], the system named is Streptococcus pyogenes (Streptococcus pyogenes). The experiment in a line: Antibacterial activity against Streptococcus pyogenes.
For another experiment, the system named is Moraxella catarrhalis. The experiment in a line: Antibacterial activity against Moraxella catarrhalis. The experiment is classed as functional.
For the next experiment, the system named is Enterococcus sp. The experiment in a line: Antibacterial activity against Enterococcus species. The experiment is classed as functional.
A further experiment deals with Streptococcus agalactiae. The experiment can be described thus: Antibacterial activity against Streptococcus agalactiae. The experiment is classed as functional.
Experiment [6] deals with Mus musculus. The experiment can be described thus: Efficacy of compound to protect the methicillin resistant […] infected murine sc administration. The experiment is classed as functional.
The subject of experiment [7] is Streptococcus pneumoniae. The experiment in a line: Antibacterial activity against Streptococcus pneumoniae (PEN-R). The experiment is classed as functional.
Experiment [8] concerns Mus musculus. The experiment can be described thus: Efficacy of compound to protect the methicillin resistant Staphylococcus aureus infected murine po administration. The class given is functional.

As for `COc1cc(Cc2cnc(N)nc2N)cc(OC)c1OC` [TRIMETHOPRIM], the MIC90 against Haemophilus influenzae was 1 µg/mL (≈ 3.44 µM); in the experiment with Staphylococcus aureus [1] it was 16 µg/mL (≈ 55.1 µM); against Streptococcus pneumoniae [3], greater than 128 µg/mL; with Staphylococcus aureus [4], 8 µg/mL (≈ 27.6 µM); in experiment [5], 64 µg/mL (≈ 220 µM); in the experiment on Moraxella catarrhalis, 128 µg/mL (≈ 441 µM). For the same molecule, the figures for the MIC90 against Enterococcus sp. and against Streptococcus agalactiae were 8 µg/mL (≈ 27.6 µM) and 128 µg/mL (≈ 441 µM), respectively. Also, the median effective dose (ED50) worked out at 15 mg/kg in the experiment on Mus musculus [2] and 60 mg/kg in the experiment on Mus musculus [6].
Take `CC(=O)NC[C@H]1CN(c2ccc(N3CCOCC3)c(F)c2)C(=O)O1` [LINEZOLID]: the MIC90 against Haemophilus influenzae is 64 µg/mL (≈ 190 µM); in the experiment with Staphylococcus aureus [1], 8 µg/mL (≈ 23.7 µM); in the experiment on Staphylococcus aureus [4] it was 8 µg/mL (≈ 23.7 µM); in [5], 2 µg/mL (≈ 5.93 µM); in the experiment on Moraxella catarrhalis it was 8 µg/mL (≈ 23.7 µM); against Streptococcus pneumoniae [7], 2 µg/mL (≈ 5.93 µM). The MIC90 worked out at 4 µg/mL (≈ 11.9 µM) against Enterococcus sp. and 2 µg/mL (≈ 5.93 µM) in the experiment on Streptococcus agalactiae.
As for `COc1cc(Cc2cnc(N)nc2N)c2c(c1OC)OC(C1CC1)C=C2` (configuration not stated), the MIC90 in the experiment on Haemophilus influenzae amounted to 0.5 µg/mL (≈ 1.41 µM); in the experiment with Staphylococcus aureus [1] it was 0.06 µg/mL (≈ 0.169 µM); with Staphylococcus aureus [4], 0.06 µg/mL (≈ 0.169 µM); in experiment [5], 0.03 µg/mL (≈ 0.0846 µM); in the experiment on Moraxella catarrhalis, 4 µg/mL (≈ 11.3 µM); in the experiment on Streptococcus pneumoniae [7] it was 4 µg/mL (≈ 11.3 µM). The figures for the MIC90 against Enterococcus sp. and in the experiment on Streptococcus agalactiae were 0.12 µg/mL (≈ 0.339 µM) and 0.5 µg/mL (≈ 1.41 µM), respectively. Further, the ED50 with Mus musculus [2] was determined as 4.3 mg/kg; in the experiment on Mus musculus [6] it was 20 mg/kg; in the experiment on Mus musculus [8], 17 mg/kg.
Regarding `CN[C@H](CC(C)C)C(=O)N[C@H]1C(=O)N[C@@H](CC(N)=O)C(=O)N[C@H]2C(=O)N[C@H]3C(=O)N[C@H](C(=O)N[C@H](C(=O)O)c4cc(O)cc(O)c4-c4cc3ccc4O)[C@H](O)c3ccc(c(Cl)c3)Oc3cc2cc(c3O[C@@H]2O[C@H](CO)[C@@H](O)[C@H](O)[C@H]2O[C@H]2C[C@](C)(N)[C@H](O)[C@H](C)O2)Oc2ccc(cc2Cl)[C@H]1O` [VANCOMYCIN], the MIC90 against Haemophilus influenzae is 128 µg/mL (≈ 88.3 µM); in the experiment with Staphylococcus aureus [1], 1 µg/mL (≈ 0.69 µM); with Staphylococcus aureus [4], 1 µg/mL (≈ 0.69 µM); in experiment [5], 1 µg/mL (≈ 0.69 µM); against Moraxella catarrhalis it was 64 µg/mL (≈ 44.2 µM); in the experiment on Streptococcus pneumoniae [7], 1 µg/mL (≈ 0.69 µM). The MIC90 stood at 2 µg/mL (≈ 1.38 µM) against Enterococcus sp. and 0.5 µg/mL (≈ 0.345 µM) against Streptococcus agalactiae.
